In the NIST ThermoML archive (doi:10.1021/je1008747):
± gives the expanded uncertainty stated by the source.

Conditions: Liquid

CCCCn1cc[n+](C)c1.[Cl-] [1-butyl-3-methylimidazolium chloride]
mass density (348.15 K, 101.33 kPa): 1055.7 ± 2.4 kg/m3 | mass density (352.1 K, 100 kPa): 1054 ± 2 kg/m3 | mass density (352.1 K, 10000 kPa): 1058 ± 2 kg/m3 | mass density (352.1 K, 20000 kPa): 1062 ± 2 kg/m3 | mass density (352.1 K, 30000 kPa): 1067 ± 2 kg/m3 | mass density (352.1 K, 40000 kPa): 1071 ± 2 kg/m3 | mass density (352.1 K, 50000 kPa): 1074 ± 3 kg/m3 | mass density (352.1 K, 60000 kPa): 1078 ± 3 kg/m3 | mass density (352.1 K, 70000 kPa): 1082 ± 3 kg/m3 | mass density (352.1 K, 80000 kPa): 1085 ± 3 kg/m3 | mass density (352.1 K, 90000 kPa): 1089 ± 3 kg/m3 | mass density (352.1 K, 100000 kPa): 1093 ± 3 kg/m3 | mass density (352.1 K, 110000 kPa): 1096 ± 3 kg/m3 | mass density (352.1 K, 120000 kPa): 1099 ± 3 kg/m3 | mass density (352.1 K, 130000 kPa): 1102 ± 3 kg/m3 | mass density (352.1 K, 140000 kPa): 1106 ± 3 kg/m3 | mass density (352.1 K, 150000 kPa): 1109 ± 3 kg/m3 | mass density (352.1 K, 160000 kPa): 1112 ± 3 kg/m3 | mass density (352.1 K, 170000 kPa): 1115 ± 3 kg/m3 | mass density (352.1 K, 180000 kPa): 1118 ± 3 kg/m3 | mass density (352.1 K, 190000 kPa): 1121 ± 4 kg/m3 | mass density (352.1 K, 200000 kPa): 1124 ± 4 kg/m3 | mass density (353.15 K, 101.33 kPa): 1053 ± 2.4 kg/m3 | mass density (358.15 K, 101.33 kPa): 1050.4 ± 2.4 kg/m3 | mass density (363.15 K, 101.33 kPa): 1047.7 ± 2.4 kg/m3 | mass density (368.15 K, 101.33 kPa): 1045.1 ± 2.4 kg/m3 | mass density (372.4 K, 10000 kPa): 1046 ± 2 kg/m3 | mass density (372.4 K, 20000 kPa): 1050 ± 2 kg/m3 | mass density (372.4 K, 30000 kPa): 1055 ± 2 kg/m3 | mass density (372.4 K, 40000 kPa): 1059 ± 2 kg/m3 | mass density (372.4 K, 50000 kPa): 1063 ± 2 kg/m3 | mass density (372.4 K, 60000 kPa): 1067 ± 3 kg/m3 | mass density (372.4 K, 70000 kPa): 1071 ± 3 kg/m3 | mass density (372.4 K, 80000 kPa): 1074 ± 3 kg/m3 | mass density (372.4 K, 90000 kPa): 1078 ± 3 kg/m3 | mass density (372.4 K, 100000 kPa): 1081 ± 3 kg/m3 | mass density (372.4 K, 110000 kPa): 1085 ± 3 kg/m3 | mass density (372.4 K, 120000 kPa): 1088 ± 3 kg/m3 | mass density (372.4 K, 130000 kPa): 1092 ± 3 kg/m3 | mass density (372.4 K, 140000 kPa): 1095 ± 3 kg/m3 | mass density (372.4 K, 150000 kPa): 1099 ± 3 kg/m3 | mass density (372.4 K, 160000 kPa): 1102 ± 3 kg/m3 | mass density (372.4 K, 170000 kPa): 1105 ± 3 kg/m3 | mass density (372.4 K, 180000 kPa): 1108 ± 3 kg/m3 | mass density (372.4 K, 190000 kPa): 1111 ± 3 kg/m3 | mass density (372.4 K, 200000 kPa): 1115 ± 4 kg/m3 | mass density (373.15 K, 101.33 kPa): 1042.6 ± 2.4 kg/m3 | mass density (392.3 K, 10000 kPa): 1034 ± 2 kg/m3 | mass density (392.3 K, 20000 kPa): 1038 ± 2 kg/m3 | mass density (392.3 K, 30000 kPa): 1043 ± 2 kg/m3 | mass density (392.3 K, 40000 kPa): 1047 ± 2 kg/m3 | mass density (392.3 K, 50000 kPa): 1052 ± 2 kg/m3 | mass density (392.3 K, 60000 kPa): 1056 ± 2 kg/m3 | mass density (392.3 K, 70000 kPa): 1059 ± 3 kg/m3 | mass density (392.3 K, 80000 kPa): 1063 ± 3 kg/m3 | mass density (392.3 K, 90000 kPa): 1067 ± 3 kg/m3 | mass density (392.3 K, 100000 kPa): 1071 ± 3 kg/m3 | mass density (392.3 K, 110000 kPa): 1075 ± 3 kg/m3 | mass density (392.3 K, 120000 kPa): 1078 ± 3 kg/m3 | mass density (392.3 K, 130000 kPa): 1081 ± 3 kg/m3 | mass density (392.3 K, 140000 kPa): 1085 ± 3 kg/m3 | mass density (392.3 K, 150000 kPa): 1088 ± 3 kg/m3 | mass density (392.3 K, 160000 kPa): 1092 ± 3 kg/m3 | mass density (392.3 K, 170000 kPa): 1095 ± 3 kg/m3 | mass density (392.3 K, 180000 kPa): 1099 ± 3 kg/m3 | mass density (392.3 K, 190000 kPa): 1102 ± 3 kg/m3 | mass density (392.3 K, 200000 kPa): 1105 ± 3 kg/m3 | mass density (412.3 K, 10000 kPa): 1022 ± 2 kg/m3 | mass density (412.3 K, 20000 kPa): 1027 ± 2 kg/m3 | mass density (412.3 K, 30000 kPa): 1032 ± 2 kg/m3 | mass density (412.3 K, 40000 kPa): 1036 ± 2 kg/m3 | mass density (412.3 K, 50000 kPa): 1041 ± 2 kg/m3 | mass density (412.3 K, 60000 kPa): 1045 ± 2 kg/m3 | mass density (412.3 K, 70000 kPa): 1049 ± 2 kg/m3 | mass density (412.3 K, 80000 kPa): 1053 ± 2 kg/m3 | mass density (412.3 K, 90000 kPa): 1057 ± 3 kg/m3 | mass density (412.3 K, 100000 kPa): 1061 ± 3 kg/m3 | mass density (412.3 K, 110000 kPa): 1064 ± 3 kg/m3 | mass density (412.3 K, 120000 kPa): 1068 ± 3 kg/m3 | mass density (412.3 K, 130000 kPa): 1072 ± 3 kg/m3 | mass density (412.3 K, 140000 kPa): 1076 ± 3 kg/m3 | mass density (412.3 K, 150000 kPa): 1079 ± 3 kg/m3 | mass density (412.3 K, 160000 kPa): 1082 ± 3 kg/m3 | mass density (412.3 K, 170000 kPa): 1086 ± 3 kg/m3 | mass density (412.3 K, 180000 kPa): 1089 ± 3 kg/m3 | mass density (412.3 K, 190000 kPa): 1092 ± 3 kg/m3 | mass density (412.3 K, 200000 kPa): 1096 ± 3 kg/m3 | mass density (432.2 K, 10000 kPa): 1011 ± 2 kg/m3 | mass density (432.2 K, 20000 kPa): 1016 ± 2 kg/m3 | mass density (432.2 K, 30000 kPa): 1021 ± 2 kg/m3 | mass density (432.2 K, 40000 kPa): 1026 ± 2 kg/m3 | mass density (432.2 K, 50000 kPa): 1030 ± 2 kg/m3 | mass density (432.2 K, 60000 kPa): 1035 ± 2 kg/m3 | mass density (432.2 K, 70000 kPa): 1039 ± 2 kg/m3 | mass density (432.2 K, 80000 kPa): 1043 ± 2 kg/m3 | mass density (432.2 K, 90000 kPa): 1047 ± 2 kg/m3 | mass density (432.2 K, 100000 kPa): 1051 ± 3 kg/m3 | mass density (432.2 K, 110000 kPa): 1055 ± 3 kg/m3 | mass density (432.2 K, 120000 kPa): 1059 ± 3 kg/m3 | mass density (432.2 K, 130000 kPa): 1062 ± 3 kg/m3 | mass density (432.2 K, 140000 kPa): 1066 ± 3 kg/m3 | mass density (432.2 K, 150000 kPa): 1069 ± 3 kg/m3 | mass density (432.2 K, 160000 kPa): 1073 ± 3 kg/m3 | mass density (432.2 K, 170000 kPa): 1076 ± 3 kg/m3 | mass density (432.2 K, 180000 kPa): 1080 ± 3 kg/m3 | mass density (432.2 K, 190000 kPa): 1083 ± 3 kg/m3 | mass density (432.2 K, 200000 kPa): 1087 ± 3 kg/m3 | mass density (452 K, 10000 kPa): 1000 ± 2 kg/m3 | mass density (452 K, 20000 kPa): 1005 ± 2 kg/m3 | mass density (452 K, 30000 kPa): 1010 ± 2 kg/m3 | mass density (452 K, 40000 kPa): 1015 ± 2 kg/m3 | mass density (452 K, 50000 kPa): 1020 ± 2 kg/m3 | mass density (452 K, 60000 kPa): 1024 ± 2 kg/m3 | mass density (452 K, 70000 kPa): 1028 ± 2 kg/m3 | mass density (452 K, 80000 kPa): 1032 ± 2 kg/m3 | mass density (452 K, 90000 kPa): 1037 ± 2 kg/m3 | mass density (452 K, 100000 kPa): 1041 ± 2 kg/m3 | mass density (452 K, 110000 kPa): 1045 ± 3 kg/m3 | mass density (452 K, 120000 kPa): 1048 ± 3 kg/m3 | mass density (452 K, 130000 kPa): 1052 ± 3 kg/m3 | mass density (452 K, 140000 kPa): 1056 ± 3 kg/m3 | mass density (452 K, 150000 kPa): 1060 ± 3 kg/m3 | mass density (452 K, 160000 kPa): 1063 ± 3 kg/m3 | mass density (452 K, 170000 kPa): 1067 ± 3 kg/m3 | mass density (452 K, 180000 kPa): 1070 ± 3 kg/m3 | mass density (452 K, 190000 kPa): 1074 ± 3 kg/m3 | mass density (452 K, 200000 kPa): 1077 ± 3 kg/m3
